Source: ChEMBL document CHEMBL2176878, “Synthesis and biological characterization of 3-substituted 1H-indoles as ligands of GluN2B-containing N-methyl-D-aspartate receptors. Part 2” (J Med Chem, 2012)
Values belong to the compound of their own block, whether it stands above or below them.

Key:
[1] = target: Glutamate receptor ionotropic, NMDA 2B (Mus musculus) (UniProt Q01097); assay: (§1) Antagonist activity at NMDA receptor GluN2B subunit in FVB mouse CA1 pyramidal neurons assessed as decrease in EPSC amplitude at holding potential of -60 mV at 50 uM measured at 5 mins by patch clamp electrophysiological assay in presence of Mg2+ free ACSF containing CNQX, glycine, bicuculline relative to control; format: functional, cell-based; parameters: scale not given: the % may be the effect or the level left; conditions: Pyramidal neuron
[2] = target: Glutamate receptor ionotropic, NMDA 2B (Rattus norvegicus, UniProt Q00960); assay: Displacement of [3H]ifenprodil from NMDA receptor GluN2B subunit in Wistar rat cerebral cortex after 120 mins; format: tissue-based
[3] = Dissociation constant, pKa of the compound; format: physicochemical
[4] = target: Glutamate receptor ionotropic, NMDA 2B (Mus musculus) (UniProt Q01097); assay: as §1, with “100 nM” for “50 uM”; format: functional, cell-based; parameters: scale not given: the % may be the effect or the level left; conditions: Pyramidal neuron
[5] = target: Glutamate receptor ionotropic, NMDA 2B (Rattus norvegicus) (UniProt Q00960); assay: as §1, with “Wistar rat” for “FVB mouse”, “100 nM” for “50 uM”; format: functional, cell-based; parameters: scale not given: the % may be the effect or the level left; conditions: Pyramidal neuron
[6] = target: Glutamate receptor ionotropic, NMDA 2B (Rattus norvegicus) (UniProt Q00960); assay: Displacement of [3H]ifenprodil from NMDA receptor GluN2B subunit in Wistar rat cerebral cortex at 10 uM after 120 mins; format: tissue-based
[7] = target: Glutamate NMDA receptor; Grin1/Grin2b (Rattus norvegicus, UniProt P35439+Q00960); assay: Inhibition of rat NMDA receptor NR1F/NR2B subunit expressed in Xenopus laevis oocytes after 2 days by two-electrode voltage-clamp electrophysiological assay; format: cell-based, Oocyte
[8] = target: Glutamate receptor ionotropic, NMDA 2B (Mus musculus) (UniProt Q01097); assay: as §1, with “6” for “50”; format: functional, cell-based; parameters: scale not given: the % may be the effect or the level left; conditions: Pyramidal neuron

Chain of Glutamate receptor ionotropic, NMDA 2B (Q00960 whole entry): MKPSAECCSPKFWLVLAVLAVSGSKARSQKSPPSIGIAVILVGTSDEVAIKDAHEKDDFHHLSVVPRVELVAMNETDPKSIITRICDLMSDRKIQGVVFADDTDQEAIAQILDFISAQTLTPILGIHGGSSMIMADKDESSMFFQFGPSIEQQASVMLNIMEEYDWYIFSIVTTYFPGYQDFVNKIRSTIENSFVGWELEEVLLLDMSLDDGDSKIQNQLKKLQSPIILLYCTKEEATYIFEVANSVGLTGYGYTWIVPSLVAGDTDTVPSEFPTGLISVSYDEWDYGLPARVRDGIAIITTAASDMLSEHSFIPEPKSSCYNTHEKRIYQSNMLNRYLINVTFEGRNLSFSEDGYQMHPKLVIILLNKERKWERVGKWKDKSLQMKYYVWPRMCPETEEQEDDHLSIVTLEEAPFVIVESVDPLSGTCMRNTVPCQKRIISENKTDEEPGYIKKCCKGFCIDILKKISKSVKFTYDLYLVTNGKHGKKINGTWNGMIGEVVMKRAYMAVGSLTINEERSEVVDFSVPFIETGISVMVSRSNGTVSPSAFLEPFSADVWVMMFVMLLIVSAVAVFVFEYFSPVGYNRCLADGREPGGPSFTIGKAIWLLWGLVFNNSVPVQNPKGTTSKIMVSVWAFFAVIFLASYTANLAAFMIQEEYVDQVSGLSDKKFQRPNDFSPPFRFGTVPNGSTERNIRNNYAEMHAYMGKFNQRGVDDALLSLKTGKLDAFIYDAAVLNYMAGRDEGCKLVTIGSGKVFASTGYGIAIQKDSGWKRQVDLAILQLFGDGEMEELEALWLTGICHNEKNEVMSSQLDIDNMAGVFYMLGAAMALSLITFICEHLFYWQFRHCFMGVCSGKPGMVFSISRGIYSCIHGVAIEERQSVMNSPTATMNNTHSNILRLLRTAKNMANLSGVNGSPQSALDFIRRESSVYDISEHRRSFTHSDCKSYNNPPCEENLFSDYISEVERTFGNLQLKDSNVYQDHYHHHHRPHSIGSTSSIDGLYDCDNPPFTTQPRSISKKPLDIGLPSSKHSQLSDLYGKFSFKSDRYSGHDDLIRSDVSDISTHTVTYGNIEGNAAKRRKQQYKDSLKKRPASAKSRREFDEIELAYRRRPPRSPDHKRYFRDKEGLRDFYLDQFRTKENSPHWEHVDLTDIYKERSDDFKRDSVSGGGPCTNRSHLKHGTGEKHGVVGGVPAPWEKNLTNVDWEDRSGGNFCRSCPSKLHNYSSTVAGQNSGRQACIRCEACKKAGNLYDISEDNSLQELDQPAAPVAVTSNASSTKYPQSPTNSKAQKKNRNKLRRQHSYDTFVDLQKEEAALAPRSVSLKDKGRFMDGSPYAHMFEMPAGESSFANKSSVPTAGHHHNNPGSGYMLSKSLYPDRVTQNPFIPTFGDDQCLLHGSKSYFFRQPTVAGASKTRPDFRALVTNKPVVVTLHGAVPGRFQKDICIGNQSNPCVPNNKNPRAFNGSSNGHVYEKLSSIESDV
Chain of Glutamate receptor ionotropic, NMDA 2B (Mus musculus) (Q01097 whole entry): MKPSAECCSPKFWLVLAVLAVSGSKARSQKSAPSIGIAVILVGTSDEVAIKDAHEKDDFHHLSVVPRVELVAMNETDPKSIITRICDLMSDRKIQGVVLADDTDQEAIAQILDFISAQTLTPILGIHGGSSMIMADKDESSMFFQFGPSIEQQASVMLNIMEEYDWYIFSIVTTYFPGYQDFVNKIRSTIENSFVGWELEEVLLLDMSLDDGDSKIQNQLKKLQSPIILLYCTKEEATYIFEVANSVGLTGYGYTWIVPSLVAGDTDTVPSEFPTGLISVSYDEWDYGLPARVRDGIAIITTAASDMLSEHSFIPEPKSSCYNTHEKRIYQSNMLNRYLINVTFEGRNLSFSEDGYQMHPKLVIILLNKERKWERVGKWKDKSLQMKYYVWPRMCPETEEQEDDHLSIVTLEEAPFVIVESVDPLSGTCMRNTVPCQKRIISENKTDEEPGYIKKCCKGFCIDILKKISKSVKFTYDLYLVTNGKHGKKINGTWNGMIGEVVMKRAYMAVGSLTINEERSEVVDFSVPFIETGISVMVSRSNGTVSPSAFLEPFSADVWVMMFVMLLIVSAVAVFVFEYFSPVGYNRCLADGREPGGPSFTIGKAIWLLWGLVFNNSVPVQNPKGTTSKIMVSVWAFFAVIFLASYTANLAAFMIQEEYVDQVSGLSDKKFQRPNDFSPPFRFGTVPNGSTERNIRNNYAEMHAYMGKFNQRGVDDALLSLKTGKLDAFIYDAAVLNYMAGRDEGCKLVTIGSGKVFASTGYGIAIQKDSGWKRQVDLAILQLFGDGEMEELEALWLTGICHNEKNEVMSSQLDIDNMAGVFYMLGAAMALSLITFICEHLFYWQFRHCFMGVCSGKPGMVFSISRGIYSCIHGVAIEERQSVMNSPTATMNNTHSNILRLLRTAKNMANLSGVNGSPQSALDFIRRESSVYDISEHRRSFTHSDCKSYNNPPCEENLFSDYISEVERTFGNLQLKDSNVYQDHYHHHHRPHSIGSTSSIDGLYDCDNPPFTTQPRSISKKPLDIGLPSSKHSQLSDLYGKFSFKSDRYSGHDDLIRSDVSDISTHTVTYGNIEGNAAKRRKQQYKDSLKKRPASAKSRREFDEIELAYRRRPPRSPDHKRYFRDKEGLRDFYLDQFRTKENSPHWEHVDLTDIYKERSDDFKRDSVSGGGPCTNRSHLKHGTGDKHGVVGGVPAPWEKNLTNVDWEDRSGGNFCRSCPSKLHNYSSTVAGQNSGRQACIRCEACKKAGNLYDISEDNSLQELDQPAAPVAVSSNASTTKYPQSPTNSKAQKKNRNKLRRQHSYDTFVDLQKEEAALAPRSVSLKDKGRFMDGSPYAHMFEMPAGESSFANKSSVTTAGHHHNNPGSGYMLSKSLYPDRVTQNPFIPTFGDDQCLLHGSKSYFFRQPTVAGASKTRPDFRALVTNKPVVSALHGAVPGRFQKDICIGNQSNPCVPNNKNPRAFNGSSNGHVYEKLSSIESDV
Chain of Glutamate receptor ionotropic, NMDA 2B (Rattus norvegicus) (Q00960 27-1482 limits assumed): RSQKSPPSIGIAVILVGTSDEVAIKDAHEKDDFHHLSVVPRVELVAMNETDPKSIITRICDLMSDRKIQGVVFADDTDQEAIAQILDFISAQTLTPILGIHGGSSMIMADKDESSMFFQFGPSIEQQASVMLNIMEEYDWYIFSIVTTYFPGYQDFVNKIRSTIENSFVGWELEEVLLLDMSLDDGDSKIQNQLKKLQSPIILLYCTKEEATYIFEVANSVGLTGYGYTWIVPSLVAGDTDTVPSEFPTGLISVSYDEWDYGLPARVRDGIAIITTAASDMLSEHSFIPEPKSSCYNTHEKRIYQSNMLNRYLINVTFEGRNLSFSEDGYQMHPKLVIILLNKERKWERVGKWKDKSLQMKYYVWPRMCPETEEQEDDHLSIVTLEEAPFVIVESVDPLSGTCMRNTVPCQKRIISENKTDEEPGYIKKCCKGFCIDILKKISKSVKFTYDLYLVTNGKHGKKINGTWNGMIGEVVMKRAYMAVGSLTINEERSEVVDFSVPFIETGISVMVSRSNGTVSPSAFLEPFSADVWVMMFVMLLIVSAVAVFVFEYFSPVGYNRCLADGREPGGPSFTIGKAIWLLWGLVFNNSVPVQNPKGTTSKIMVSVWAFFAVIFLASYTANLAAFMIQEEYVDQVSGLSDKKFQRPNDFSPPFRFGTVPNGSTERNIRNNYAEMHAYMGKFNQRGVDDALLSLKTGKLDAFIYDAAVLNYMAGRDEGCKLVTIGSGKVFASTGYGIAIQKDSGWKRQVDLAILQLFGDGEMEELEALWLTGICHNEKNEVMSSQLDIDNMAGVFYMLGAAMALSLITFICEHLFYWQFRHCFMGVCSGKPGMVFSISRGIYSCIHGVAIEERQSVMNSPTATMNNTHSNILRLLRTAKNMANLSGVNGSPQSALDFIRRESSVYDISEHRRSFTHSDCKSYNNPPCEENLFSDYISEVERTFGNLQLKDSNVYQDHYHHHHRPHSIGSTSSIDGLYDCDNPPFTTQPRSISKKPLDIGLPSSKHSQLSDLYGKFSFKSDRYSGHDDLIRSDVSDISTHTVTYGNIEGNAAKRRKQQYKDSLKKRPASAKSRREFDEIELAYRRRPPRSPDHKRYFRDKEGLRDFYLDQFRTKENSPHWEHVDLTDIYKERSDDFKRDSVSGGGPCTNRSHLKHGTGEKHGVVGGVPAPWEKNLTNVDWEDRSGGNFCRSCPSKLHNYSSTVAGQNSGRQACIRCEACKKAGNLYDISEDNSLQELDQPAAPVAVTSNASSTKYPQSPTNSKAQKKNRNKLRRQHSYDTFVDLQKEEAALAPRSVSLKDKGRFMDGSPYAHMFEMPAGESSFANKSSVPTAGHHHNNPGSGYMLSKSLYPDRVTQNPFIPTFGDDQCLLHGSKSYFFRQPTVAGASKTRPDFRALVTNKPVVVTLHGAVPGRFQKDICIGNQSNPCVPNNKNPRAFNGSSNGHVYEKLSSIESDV

SMILES: N[C@H](CCCP(=O)(O)O)C(=O)O
Activity [1]: 28%

IC50 [2]: 320 nM
SMILES: CS(=O)(=O)Nc1ccc2[nH]cc(C(=O)CN3CCC(Cc4ccccc4)CC3)c2c1

pKa [3]: 9.63
SMILES: O=C(CN1CCC(Cc2ccccc2)CC1)c1c[nH]c2cc(O)ccc12

IC50 [2]: 63 nM
SMILES: CS(=O)(=O)Nc1ccc2c(C(=O)C(=O)N3CCC(Cc4ccccc4)CC3)c[nH]c2c1

IC50 [2]: 1180 nM
SMILES: Nc1ccc2[nH]cc(C(=O)CN3CCC(Cc4ccccc4)CC3)c2c1

Activity [4]: 23.3%
pKa [3]: 9.97
Activity [5]: 50%
IC50 [2]: 8.9 nM
SMILES: CS(=O)(=O)Nc1ccc2c(C(=O)CN3CCC(Cc4ccccc4)CC3)c[nH]c2c1

inhibition [6]: 32%
SMILES: Nc1ccc2c(C(=O)C(=O)N3CCC(Cc4ccccc4)CC3)c[nH]c2c1

inhibition [6]: 40%
SMILES: Nc1ccc2[nH]cc(C(=O)C(=O)N3CCC(Cc4ccccc4)CC3)c2c1

IC50 [2]: 2270 nM
SMILES: Nc1ccc2c(C(=O)CN3CCC(Cc4ccccc4)CC3)c[nH]c2c1

inhibition [6]: 42%
SMILES: CS(=O)(=O)Nc1ccc2[nH]cc(C(=O)C(=O)N3CCC(Cc4ccccc4)CC3)c2c1

IC50 [7]: 17 nM
Activity [8]: 29%
SMILES: C[C@@H](CN1CCC(Cc2ccccc2)CC1)[C@@H](O)c1ccc(O)cc1
